{"source": "patent US20250163055A1", "about": "“POLYMORPH OF JAK TYROSINE KINASE INHIBITOR AND PREPARATION METHOD THEREFOR” (Prime Gene Therapeutics Co., Ltd., priority 2022, published 2025)", "key": {"[1]": {"experiment": "Solubility measurement at different pH (37° C., 24 h)", "type": "physicochemical", "conditions": "for solubility at 24 h: 37 °C, thermodynamic from solid, read-out: solubility, concentration", "from_the_text": "(§1) Solubility Investigation of Different Crystal Forms"}, "[2]": {"experiment": "Solubility of crystal forms in 20% propylene glycol at 32° C. over time", "type": "physicochemical", "conditions": "aqueous with cosolvent or surfactant or cyclodextrin, thermodynamic from solid", "from_the_text": "as §1"}, "[3]": {"experiment": "Pharmacokinetic experiment in male SD rats (oral, intravenous, transdermal)", "type": "in vivo, rat", "conditions": "for AUC(0-inf): read-out: AUC0-inf", "description": "The solid powders of Examples 1 and 6, and the hydrogel preparations thereof were taken, and the PK values of rats administered by oral gavage and transdermal application were respectively determined. Male SD rats were divided into groups, 3 rats in each group, and were administered the compounds obtained in Examples 1 and 6 by oral gavage (oral group). administered Example 1 intravenously (intravenous group), and administered the gel preparations prepared from the compounds of Examples 1 and 6 topically to the skin (transdermal group). Animals were fasted overnight before the experiment, and the fasting time ranged from 10 hours before administration to 4 hours after administration. Blood was collected at 0.25, 0.5, 1, 2, 4, 6, 8 and 24 hours after administration in oral group and transdermal group, and at 0.083, 0.25, 0.5, 1, 2, 4, 6, 8 and 24 hours after administration in intravenous group. After being anesthetized with isoflurane using a small animal anesthesia machine, 0.3 mL of whole blood was collected through the fundus venous plexus and placed in a heparin anticoagulant tube. The blood samples were centrifuged at 4° C. and 4000 rpm for 5 min, and plasma was transferred to a centrifuge tube and placed at −80° C. until analysis. Plasma was extracted by protein precipitation method, and the extract was analyzed by LC/MS/MS. The transdermal group was administered for 24 hours and the skin at the administration site was peeled off after washing off the epidermal drug, and the drug content in the skin was analyzed by LC/MS/MS after homogenization."}, "[4]": {"experiment": "Transdermal test of gel preparations (transdermal rate)", "type": "in vitro ADME", "conditions": "gel preparation; receiving medium 5.0% Tween 80, pH 5.5 phosphate", "from_the_text": "Take the crystal obtained in Examples 1 or 6 and prepare it into gel preparation (the process for preparing the gel preparation can be: after stirring PEG400, propylene glycol, glycerin, ethanol and the crystal of Example 1 or 6, mix with EDTA aqueous solution, add in the swelled carbomer aqueous solution, adjust pH to be 6 with 10% triethanolamine solution, to obtain the gel). Measure respective transdermal rate (receiving medium 5.0% Tween 80, pH 5.5 phosphate)."}, "[5]": {"experiment": "Long-term (24-months) stability of crystal forms", "type": "physicochemical", "conditions": "for stability of the crystal form (result in words): long-term stability investigation, summary; for Appearance / Content / Loss on Drying / Related Substances, Most Unknown Impurity / Related Substances, Total Impurities: long-term stability", "from_the_text": "The crystals prepared in examples 1, 3 and 6 were selected, and the stability of the crystal forms 1, IIa and IIb was investigated in accordance with the stability research guidelines issued by the National Medical Product Administration. The crystals were packed in pharmaceutical low-density polyethylene bags, and 24 months long-term stability was investigated."}, "[6]": {"conditions": "male, SD, rat, plasma, iv, intravenous group"}, "[7]": {"conditions": "male, SD, rat, plasma, po, oral group (gavage)"}}, "note": "Like-named read-outs stand apart in the source and are kept apart here."}
{"smiles": "CC(C)S(=O)(=O)N1CC(CC#N)(n2cc(-c3ncnc4[nH]ccc34)c(N)n2)C1", "note": "[Example 1, 2-{3-[3-amino-4-(7H-pyrrolo[2,3-d]pyrimidin-4-yl)-1H-pyrazol-1-yl]-1-(isopropylsulfonyl)azetidin-3-yl}acetonitrile crystal form I]", "values": [{"measurement": "solubility at 24 h", "setting": "[1]; pH 6.8, aqueous buffer, pH 6.8, 37° C.", "value": 1.2, "unit": "µg/mL"}, {"measurement": "solubility at 24 h", "setting": "[1]; pH 7, aqueous buffer, pH 7.0, 37° C.", "value": 1.3, "unit": "µg/mL"}, {"measurement": "solubility at 24 h", "setting": "[1]; pH 8, aqueous buffer, pH 8.0, 37° C.", "value": 1.2, "unit": "µg/mL"}, {"measurement": "solubility compared with crystal form IIb (result in words)", "setting": "[1]; summary", "value": "higher solubility and oral bioavailability than crystal form IIb"}, {"measurement": "solubility at 18 h", "setting": "[2]", "value": 20.2, "unit": "µg/mL"}, {"measurement": "half-life", "setting": "[3]; [6]", "value": 2.49, "unit": "h"}, {"measurement": "AUC(0-inf)", "setting": "[3]; [6]", "value": 496, "unit": "ng·h/mL"}, {"measurement": "half-life", "setting": "[3]; [7]", "value": 5.33, "unit": "h"}, {"measurement": "AUC(0-inf)", "setting": "[3]; [7]", "value": 941, "unit": "ng·h/mL"}, {"measurement": "Cmax", "setting": "[3]; male, SD, rat, plasma, po, oral group (gavage), read-out: Cmax", "value": 111, "unit": "ng/mL"}, {"measurement": "Tmax", "setting": "[3]; male, SD, rat, plasma, po, oral group (gavage), read-out: Tmax", "value": 2.67, "unit": "h"}, {"measurement": "F", "setting": "[3]; oral group (gavage)", "value": 37, "unit": "%"}, {"measurement": "clearance", "setting": "[3]; rat, plasma, intravenous group", "value": 69.2, "unit": "mL/min/kg"}, {"measurement": "Vd", "setting": "[3]; rat, plasma, intravenous group, read-out: Vss", "value": 4.93, "unit": "L/kg"}, {"measurement": "transdermal performance / transdermal absorption (result in words)", "setting": "[4]", "value": "better transdermal performance"}, {"measurement": "stability of the crystal form (result in words)", "setting": "[5]; listed as Crystal form I", "value": "good stability"}, {"measurement": "stability of the crystal form (result in words)", "setting": "[5]; listed as crystal form I", "value": "better chemical stability"}, {"measurement": "Appearance", "setting": "[5]; 0 month", "value": "Off-white powder"}, {"measurement": "Content", "setting": "[5]; 0 month", "value": 99.9, "unit": "%"}, {"measurement": "Loss on Drying", "setting": "[5]; 0 month", "value": 0.08, "unit": "%"}, {"measurement": "Related Substances, Most Unknown Impurity", "setting": "[5]; 0 month", "value": 0.17, "unit": "%"}, {"measurement": "Related Substances, Total Impurities", "setting": "[5]; 0 month", "value": 0.58, "unit": "%"}, {"measurement": "Appearance", "setting": "[5]; 3 months", "value": "Off-white powder"}, {"measurement": "Content", "setting": "[5]; 3 months", "value": 100.1, "unit": "%"}, {"measurement": "Loss on Drying", "setting": "[5]; 3 months", "value": 0.06, "unit": "%"}, {"measurement": "Related Substances, Most Unknown Impurity", "setting": "[5]; 3 months", "value": 0.16, "unit": "%"}, {"measurement": "Related Substances, Total Impurities", "setting": "[5]; 3 months", "value": 0.57, "unit": "%"}, {"measurement": "Appearance", "setting": "[5]; 6 months", "value": "Off-white powder"}, {"measurement": "Content", "setting": "[5]; 6 months", "value": 100.0, "unit": "%"}, {"measurement": "Loss on Drying", "setting": "[5]; 6 months", "value": 0.08, "unit": "%"}, {"measurement": "Related Substances, Most Unknown Impurity", "setting": "[5]; 6 months", "value": 0.17, "unit": "%"}, {"measurement": "Related Substances, Total Impurities", "setting": "[5]; 6 months", "value": 0.57, "unit": "%"}, {"measurement": "Appearance", "setting": "[5]; 9 months", "value": "Off-white powder"}, {"measurement": "Content", "setting": "[5]; 9 months", "value": 99.8, "unit": "%"}, {"measurement": "Loss on Drying", "setting": "[5]; 9 months", "value": 0.11, "unit": "%"}, {"measurement": "Related Substances, Most Unknown Impurity", "setting": "[5]; 9 months", "value": 0.17, "unit": "%"}, {"measurement": "Related Substances, Total Impurities", "setting": "[5]; 9 months", "value": 0.57, "unit": "%"}, {"measurement": "Appearance", "setting": "[5]; 12 months", "value": "Off-white powder"}, {"measurement": "Content", "setting": "[5]; 12 months", "value": 99.9, "unit": "%"}, {"measurement": "Loss on Drying", "setting": "[5]; 12 months", "value": 0.09, "unit": "%"}, {"measurement": "Related Substances, Most Unknown Impurity", "setting": "[5]; 12 months", "value": 0.17, "unit": "%"}, {"measurement": "Related Substances, Total Impurities", "setting": "[5]; 12 months", "value": 0.55, "unit": "%"}, {"measurement": "Appearance", "setting": "[5]; 18 months", "value": "Off-white powder"}, {"measurement": "Content", "setting": "[5]; 18 months", "value": 99.7, "unit": "%"}, {"measurement": "Loss on Drying", "setting": "[5]; 18 months", "value": 0.12, "unit": "%"}, {"measurement": "Related Substances, Most Unknown Impurity", "setting": "[5]; 18 months", "value": 0.18, "unit": "%"}, {"measurement": "Related Substances, Total Impurities", "setting": "[5]; 18 months", "value": 0.62, "unit": "%"}, {"measurement": "Appearance", "setting": "[5]; 24 months", "value": "Off-white powder"}, {"measurement": "Content", "setting": "[5]; 24 months", "value": 99.8, "unit": "%"}, {"measurement": "Loss on Drying", "setting": "[5]; 24 months", "value": 0.10, "unit": "%"}, {"measurement": "Related Substances, Most Unknown Impurity", "setting": "[5]; 24 months", "value": 0.16, "unit": "%"}, {"measurement": "Related Substances, Total Impurities", "setting": "[5]; 24 months", "value": 0.59, "unit": "%"}]}
